Data as given in US9750714B2, “Pharmaceutical use of 3, 4-bis-benzylsulfonylbutyronitrile” (Olatec Therapeutics LLC, priority 2013, dated 2017).

Experiments:
[1] = test system: arachidonic acid-induced ear swelling; experiment: topical arachidonic acid-induced ear swelling model in mice; type: in vivo
Procedure: The test compound, indomethacin (positive control), and vehicle were evaluated for anti-inflammatory activity in a topical arachidonic acid-induced ear swelling model in mice. Male ICR mice weighing 22±2 g were used and randomly divided; the test compound and vehicle control had 10 mice, and indomethacin had 5 mice. Arachidonic Acid (0.5 mg in 20 μl of acetone:ethanol/1:1) was applied topically to the anterior and posterior surfaces of the right ear of each mouse. Test substances and vehicle, as listed in Table 2 were similarly applied 30 min before and 15 min after arachidonic acid application. The thickness of the right ear and the left ear was measured and the difference calculated as an indication of the inflammation in the right ear. Ear swelling was measured by a Dyer model micrometer gauge at 60 and 90 minutes after arachidonic acid application as an index of inflammation. Percent inhibition was calculated according to the formula: Ic−It/Ic×100, where Ic and It refers to increase of ear thickness (mm) in control and treated mice, respectively. ANOVA and Dunnett's test were employed to ascertain significant difference between vehicle control and treated groups. Significance is set at P<0.05 level.

[2] = test system: tail flick response to heat stimulus; experiment: tail flick test in mice (49° C. water bath); type: in vivo
Procedure: The tail flick test is a test of the pain response in animals. The tail flick test is used in basic pain research and to measure the effectiveness of analgesics, by observing the tail flick reaction to heat in an animal. This test assesses the nociceptive response to a local pain stimulus, and the ability of a drug to inhibit this response.
Vehicle control (DMSO) and test compound 3, 4-bis-benzylsulfonylbutanenitrile in DMSO were administered by oral gavage to mice with a volume of 5 mL/kg, immediately prior to testing, at time zero. The test compound was administered at a dosage of 500 mg/kg in DMSO. Positive control morphine in water was administered at time zero by subcutaneous injection at 8 mg/kg to mice. […] The purpose of morphine is […] to serve as a comparison with the test compound. Each group had 10 mice.
The response of mice to heat stimulus was evaluated by measuring the time of tail-flick or tail-flick latency from 49° C. water bath. Briefly, the animal was held with its tail hanging down. Approximately 2 inches of the tail was immersed in a beaker of water at 38±1° C. for about 30 seconds, and this was done twice to acclimate the animal to the procedure.
Subsequently, approximately 2 inches of the tail was immersed in a beaker of water at 49±1° C., at which point a timer was started.
Tail flick measurements were made at 0, 30, 60, and 120 minutes post administration of the dosage of test compound, vehicle, or morphine. An ANOVA was done, and if p<0.05, a Dunnett's t test was employed to calculate significant difference between vehicle control and test compound treated groups. A pairwise Student's t test was used to calculate differences between the morphine group and the control group. […] Analysis with p-values<0.05 is considered significant.

N#CCC(CS(=O)(=O)Cc1ccccc1)S(=O)(=O)Cc1ccccc1 (stereo not drawn) [3,4-bis-benzylsulfonylbutanenitrile, 3,4-bis-benzylsulfonylbutanenitrile]
anti-inflammatory activity in the mouse ear swelling model (in words) ([1]; applied topically, inflammation induced by arachidonic acid): anti-inflammatory | tail flick latency compared with vehicle-treated mice ([2]; test compound 500 mg/kg in DMSO, oral, 120 minutes post dosing): statistically significant

COc1ccc2c(c1)c(CC(=O)O)c(C)n2C(=O)c1ccc(Cl)cc1 [Indomethacin, reference compound]
% Inhibition of ear swelling ([1]; topical, applied 30 min before and 15 min after arachidonic acid, measured at 90 minutes, relative to vehicle, indomethacin 14 mM (0.1 mg/20 μL), test compound 375 mM (2.8 mg/20 μL)): 58%

CN1CC[C@]23c4c5ccc(O)c4O[C@H]2[C@@H](O)C=C[C@H]3[C@H]1C5 [morphine]
tail flick latency compared with vehicle-treated mice ([2]; morphine 8 mg/kg subcutaneous, 30 minutes post dosing): statistically significant | tail flick latency compared with vehicle-treated mice ([2]; morphine 8 mg/kg subcutaneous, 60 minutes post dosing): statistically significant | tail flick latency compared with vehicle-treated mice ([2]; morphine 8 mg/kg subcutaneous, 120 minutes post dosing): not
